From patent publication US6884821B1, “Carboxylic acid derivatives and drugs containing the same” (Eisai Co., Ltd., priority 1999, dated 2005)
Read-outs that look alike come from different tables or passages of the source.

Tests used:
human PPARγ = molecular target: T1, human PPARγ (Homo sapiens, UniProt P37231); test: Measurement of transcriptional activity (GAL4-PPAR LBD chimera, PLAP reporter, CV-1 cells); format: cell-based; conditions: PLAP activity 24 hours after addition of the compound, read-out: Transcriptional activities EC50 PRAR γ
T1 construct: human PPAR 167-468 (PPARα), 138-440 (NUC-1) and 174-475 (PPARY) amino acid regions; expressed in transfected cells; host or cells: CV-1 (ATCC CCL-70D)
T1 sequence (P37231 204-505): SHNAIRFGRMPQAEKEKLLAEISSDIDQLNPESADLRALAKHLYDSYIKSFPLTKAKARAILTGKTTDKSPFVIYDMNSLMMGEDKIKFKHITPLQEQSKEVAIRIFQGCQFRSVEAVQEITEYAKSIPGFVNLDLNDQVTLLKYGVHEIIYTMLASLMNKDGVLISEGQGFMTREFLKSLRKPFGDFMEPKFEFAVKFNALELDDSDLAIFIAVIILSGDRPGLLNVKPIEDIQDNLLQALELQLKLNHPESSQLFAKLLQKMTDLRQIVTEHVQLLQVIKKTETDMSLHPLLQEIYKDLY
Experimental: (§1) Measurement of Transcriptional Activity
(§2) As the reporter gene, PLAP (Placental Alkaline Phosphatase) was used, and this was ligated downstream of a TK promoter containing a 5-copy GAL4 DNA binding element to construct a vector. As host cells, CV-1 (ATCC CCL-70D) was used. That is, CV-1 cells were spread at a density of 5×10^5 cells on a 35-mm dish and cultured in 10% FCS/DMEM for 24 hours, and using FuGENE 6 transfection reagent, the cells were co-transfected with the GAL4-PPAR LBD expression vector and GAL4 DBD-TK-PLAP expression vector. 24 hours after this transfection, the cells were spread again on a 96-well plate at a density of 1×10^4/well and further cultured for 24 hours. After 24 hours, the medium was exchanged with DMEM containing 10% FCS, which was previously treated at 65° C. for inactivating intrinsic alkaline phosphatase, and a test compound was added at an arbitrary concentration. […] The […] was determined after adding 50 μl assay buffer and 50 μl chemoluminescence substrate to 10 μl culture supernatant and incubating the mixture at room temperature for 1 hour.

human PPARβ (NUC-1) = molecular target: T2, human PPARβ (NUC-1) (Homo sapiens, UniProt Q03181); test: as above; format: cell-based
T2 construct: human PPAR 167-468 (PPARα), 138-440 (NUC-1) and 174-475 (PPARY) amino acid regions; expressed in transfected cells; host or cells: CV-1 (ATCC CCL-70D)
T2 sequence (Q03181 138-440): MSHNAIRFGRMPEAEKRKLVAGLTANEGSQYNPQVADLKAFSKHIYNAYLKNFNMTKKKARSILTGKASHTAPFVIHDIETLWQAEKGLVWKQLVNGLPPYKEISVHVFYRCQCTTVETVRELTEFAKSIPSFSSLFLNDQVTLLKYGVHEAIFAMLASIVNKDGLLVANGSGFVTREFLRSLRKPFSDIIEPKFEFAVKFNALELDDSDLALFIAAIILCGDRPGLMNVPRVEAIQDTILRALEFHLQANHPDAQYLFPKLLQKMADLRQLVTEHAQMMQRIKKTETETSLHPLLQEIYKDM
Experimental: as §1, §2

human PPARα = molecular target: T3, human PPARα (Homo sapiens, UniProt Q07869); test: as above; format: cell-based
T3 construct: human PPAR 167-468 (PPARα), 138-440 (NUC-1) and 174-475 (PPARY) amino acid regions; expressed in transfected cells; host or cells: CV-1 (ATCC CCL-70D)
T3 sequence (Q07869 167-468): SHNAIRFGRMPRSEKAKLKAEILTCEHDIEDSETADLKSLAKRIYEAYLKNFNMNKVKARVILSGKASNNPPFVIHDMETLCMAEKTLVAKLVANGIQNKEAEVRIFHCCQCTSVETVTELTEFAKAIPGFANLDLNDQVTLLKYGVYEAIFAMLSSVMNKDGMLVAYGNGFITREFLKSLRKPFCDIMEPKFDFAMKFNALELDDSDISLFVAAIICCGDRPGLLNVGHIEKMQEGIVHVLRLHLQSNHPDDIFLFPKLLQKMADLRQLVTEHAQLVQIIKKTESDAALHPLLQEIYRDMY
Experimental: as §1, §2

male db/db mice = test: Measurement of blood sugar reduction, blood triglyceride reduction and blood free fatty acid reduction in db/db mice; conditions: in vivo db/db mice, day 9 after administration, oral once a day
Experimental: Measurement of Blood Sugar Reduction, Blood Triglyceride Reduction and Blood Free Fatty Acid Reduction
Blood, was collected through a tail vein after the mice were fasted for 1 hour, before administration, and on Day 4 and Day 9 after administration, respectively. On Day 10, an oral glucose loading test was conducted; in this test, the mice were fasted overnight from the previous day, and in the next morning, 2 g/kg glucose was given to the mice. Plasma glucose, triglycerides (TG), free fatty acid (NEFA) were measured by using commercial kits, that is, Glucose C-II Test Wako (trade name) (Wako Pure Chemical Industries, Ltd., Tokyo), Deteminer L TG II (trade name) (Kyowa Medex, Tokyo) and NEFA C-Test Wako (Wako Pure Chemical Industries, Ltd., Tokyo), respectively.

[1] = CV-1 cells, GAL4-PPAR LBD chimera, PLAP activity 24 hours after addition of the compound, read-out: Transcriptional activities EC50 PRAR β
[2] = CV-1 cells, GAL4-PPAR LBD chimera, PLAP activity 24 hours after addition of the compound, read-out: Transcriptional activities EC50 PRAR α

EC50 (human PPARγ) [µM]	EC50 (human PPARβ (NUC-1); [1]) [µM]	EC50 (human PPARα; [2]) [µM]	SMILES	Blood free fatty acid reduction (%) (male db/db mice; 30 mg/kg/day)	Blood sugar reduction (%) (male db/db mice; 30 mg/kg/day)	Blood triglycerides reduction (%) (male db/db mice; 30 mg/kg/day)	Blood free fatty acid reduction (%) (male db/db mice; 1 mg/kg/day (*))	Blood sugar reduction (%) (male db/db mice; 1 mg/kg/day (*))	Blood triglycerides reduction (%) (male db/db mice; 1 mg/kg/day (*))	EC50 (human PPARβ (NUC-1)) [µM]	EC50 (human PPARα) [µM]
> 10	8.05	0.162	CCC(Cc1ccc(OC)c(NC(=O)Cc2ccc(C(F)(F)F)c(F)c2)c1)C(=O)O (centres unmarked) [Example 18d), 2-(4-Methoxy-3-{[2-(3-fluoro-4-trifluoromethylphenyl)acetyl]amino}benzyl)butanoic acid]	–	–	–	–	–	–	–	–
0.047	0.037	0.012	COc1ccc(C[C@H](OC(C)C)C(=O)O)cc1CNC(=O)c1ccc(C(F)(F)F)cc1F [Example 36g), (2S)-3-[3-([2-fluoro-4-(trifluoromethyl)benzoyl]aminomethyl)-4-methoxyphenyl]-2-isopropoxypropanoic acid]	–	–	–	54.0	51.5	55.2	–	–
0.746	> 30	0.701	CCCOC(Cc1ccc(OC)c(C(=O)NCc2ccc(C(F)(F)F)cc2)c1)C(=O)O (centres unmarked) [Example 9d), 3-[4-methoxy-3-({[4-(trifluoromethyl)benzyl]amino}carbonyl)phenyl]-2-propoxypropanoic acid]	62.9	46.1	80.4	–	–	–	–	–
–	–	–	CCC(Cc1ccc(OC)c(C(=O)NCc2ccc(C(F)(F)F)cc2)c1)C(=O)O (centres unmarked) [Example 5d), 2-[4-Methoxy-3-({[4-(trifluoromethyl)benzyl]amino}carbonyl)benzyl)butanoic acid]	65.5	53.6	58.8	–	–	–	0.789	0.394
0.382	2.51	0.08	COc1ccc(CC(OC(C)C)C(=O)O)cc1C(=O)NCc1ccc(C(F)(F)F)cc1 (centres unmarked) [Example 2d), 2-Isopropoxy-3-(4-methoxy-3-({[4-(trifluoromethyl)benzyl]amino}carbonyl)phenyl)propanoic acid]	46.7	44.6	71.6	–	–	–	–	–
0.016	0.432	0.028	COc1ccc(C[C@H](OC(C)C)C(=O)O)cc1CNC(=O)c1ccc(Cl)cc1Cl [Example 37e), (2S)-3-[3-([2,4-dichlorobenzoyl]aminomethyl)-4-methoxyphenyl]-2-isopropoxypropanoic acid]	–	–	–	70.2	48.1	68.3	–	–

SMILES	EC50 (human PPARγ) [µM]	EC50 (human PPARβ (NUC-1); [1]) [µM]	EC50 (human PPARα; [2]) [µM]	Blood free fatty acid reduction (%) (male db/db mice; 30 mg/kg/day)	Blood sugar reduction (%) (male db/db mice; 30 mg/kg/day)	Blood triglycerides reduction (%) (male db/db mice; 30 mg/kg/day)	Blood free fatty acid reduction (%) (male db/db mice; 1 mg/kg/day (*))	Blood sugar reduction (%) (male db/db mice; 1 mg/kg/day (*))	Blood triglycerides reduction (%) (male db/db mice; 1 mg/kg/day (*))	EC50 (human PPARβ (NUC-1)) [µM]	EC50 (human PPARα) [µM]
COc1ccc(CC(OC(C)(C)C)C(=O)O)cc1C(=O)NCc1ccc(C(F)(F)F)cc1 (centres unmarked) [Example 3d), 2-tert-Butoxy-3-(4-methoxy-3-({[4-(trifluoromethyl)benzyl]amino}carbonyl)phenyl)propanoic acid]	0.217	5.07	0.087	47	27.5	63.8	–	–	–	–	–
